Data published in US10058495B2, “Method of making a skin care product” (The Procter & Gamble Company, priority 2014, dated 2018).
Residues, ends and D or L forms follow the SMILES beside them. *: point of attachment. Palmitoyl = CCCCCCCCCCCCCCCC(=O)*

Tests used:
[1] = Ex vivo skin penetration study (Franz cell); assay type: in vitro ADME, human; settings: arrays 1 (uni-directional, 27 mT) and 2 (bi-directional, overall 21 mT) of Table 1 versus other arrays tested; 400 μg/ml in 50:50 PG:PB at pH 4
Description: An ex vivo skin penetration study was conducted to compare the ability of different magnetic arrays to enhance penetration of Pal-KTTKS (SEQ ID NO: 1) into the epidermis of human skin. The dermis and epidermis of human skin samples obtained from donors aged 60-65 years were heat separated and the dermis discarded. 20 μL of a Pal-KTTKS (SEQ ID NO: 1) containing composition (400 μg/ml in 50:50 PG:PB at pH 4) was placed on human epidermis in Franz cell. Different magnetic arrays were positioned approximately 1.0 mm above the epidermis samples and moved over the samples at the speed a user might move a cosmetic applicator when applying a skin care product (e.g., about 20-25 cm/sec). Samples were taken and measured at 0, 1, 2, 4, 6, 8, 24 hours. […] For the bi-directional arrays herein, the “1st layer” refers to the layer closest to the skin-contacting surface of the applicator, and the “2nd layer” refers to the layer disposed on the side of the 1st layer opposite the side closest to the skin-contacting surface.

[2] = In vivo skin penetration study #2 (Tape Stripping method), magnetic vs non-magnetic applicator; parameters: species or system human; settings: for amount of Pal-KTTKS recovered, Sum 2-10 / amount of Pal-KTTKS recovered, Sum 6-10: in ng (unit assumed)
Description: This method provides a suitable means of measuring the amount of skin care active present in skin, and comparing active versus passive application of the skin care active. Two identical rectangular areas of 15 cm^2 are marked on the volar forearms of volunteers. A measured dose (approximately 30 mg) of the Pal-KTTKS (SEQ ID NO: 1) formulation is applied to the delineated areas using a screw actuated syringe. Active application is carried out on one of the delineated areas using the three-quarter profile of a purpose made applicator (e.g., an applicator presenting one of the magnetic arrays set forth in Table 2). Passive application is accomplished on the other delineated area using the tip of a finger in a sweeping motion identical to that of the active application. The formulation is spread evenly across the entire delineated region using a sweeping motion with a fixed speed of approximately 23 cm/s to […]. The application period is 30 seconds during which time visual inspection is used to ensure even distribution and absorption of the formulation by skin. The application area is then left uncovered for a further 30 minutes to ensure complete absorption. Tape strip samples may be collected and/or analyzed immediately after the complete absorption is ensured or after a waiting period (e.g., after multiple applications of the formulation over multiple hours or days).
The tape stripping procedure is carried out using 10 commercial pre-cut 22.1 mm tape stripping adhesive discs (e.g., D-SQUAME, available from Cuderm Corporation or equivalent) with an adhesive area of 3.8 cm^2. The 10 tape strips are applied sequentially to the same sampling site, which ideally enables each tape strip to obtain a sample from deeper within the stratum corneum than the tape strip that preceded it. A 22.1 mm diameter circular region is marked at the center of the application area. A tape stripping adhesive disc is placed over the marked area and even pressure applied using, for example, a neoprene roller, rolled ten times over the adhesive disc. The adhesive disc is removed from the skin surface in a single pulling motion using manual tweezers. To ensure even removal of the skin sample, subsequent discs are removed in a “north, south, east and west” orientation, which is within the skill of the ordinary artisan. Each adhesive disc is non-destructively analysed for protein content using a suitable instrument (e.g., SquameScan™ 850 instrument commercially available from Heiland Electronics Wetzlar, Germany, or equivalent). The adhesive disc is then immediately placed into a glass vial containing extraction solvent in preparation for subsequent analysis. Solvent extractions are conducted on each tape strip using conventional extraction methods, which are well known to those of ordinary skill in the art, and measuring the amount of Pal-KTTKS (SEQ ID NO: 1) present in the extract, for example, by high performance liquid chromatography (“HPLC”) and/or mass spectrometry.
The procedure is repeated for the remaining nine strips. An additional strip is obtained from outside the area of application of the skin care formulation to serve as a blank sample. The amount of active is normalized to the amount of protein measured.
This in vivo skin penetration study compares the penetration of Pal-KTTKS (SEQ ID NO: 1) into skin when a Pal-KTTKS (SEQ ID NO: 1)-containing composition is applied with a magnetic applicator (active application) versus application with a non-magnetic applicator (passive application). In this example, 5 test subjects (A to E in Tables 13 and 14) were selected. 18 mg of a composition containing Pal-KTTKS (SEQ ID NO: 1) (Olay® Deep Wrinkle Treatment® brand skin cream available from the Procter & Gamble Company, Cincinnati, Ohio) was applied to two 3 cm×3 cm test sites on the inner forearms of each test subject using the applicator illustrated in FIG. 1C. The applicator used for active application included Array #8 from Table 2. […]

[3] = active, array #8, Avg of all test sites
[4] = active, array #8, subject A site 1
[5] = active, array #8, subject A site 2
[6] = active, array #8, subject B site 1
[7] = active, array #8, subject B site 2
[8] = active, array #8, subject C site 1
[9] = active, array #8, subject C site 2
[10] = active, array #8, subject D site 1
[11] = active, array #8, subject D site 2
[12] = active, array #8, subject E site 1
[13] = active, array #8, subject E site 2

CCCCCCCCCCCCCCCC(=O)N[C@@H](CCCCN)C(=O)N[C@H](C(=O)N[C@H](C(=O)N[C@@H](CCCCN)C(=O)N[C@@H](CO)C(=O)O)[C@@H](C)O)[C@@H](C)O [Pal-KTTKS, palmitoyl-lysine-threonine-threonine-lysine-serine] (Palmitoyl-KTTKS-OH; C-terminus assumed)
penetration enhancement of Pal-KTTKS into epidermis [1]: best penetration enhancement
amount of Pal-KTTKS recovered, Sum 2-10 [2, 3]: 42.02
amount of Pal-KTTKS recovered, Sum 6-10 [2, 3]: 22.74
amount of Pal-KTTKS recovered, Sum 2-10 [2, 4]: 83.43
amount of Pal-KTTKS recovered, Sum 6-10 [2, 4]: 53.81
amount of Pal-KTTKS recovered, Sum 2-10 [2, 5]: 40.40
amount of Pal-KTTKS recovered, Sum 6-10 [2, 5]: 17.29
amount of Pal-KTTKS recovered, Sum 2-10 [2, 6]: 42.67
amount of Pal-KTTKS recovered, Sum 6-10 [2, 6]: 21.36
amount of Pal-KTTKS recovered, Sum 2-10 [2, 7]: 36.84
amount of Pal-KTTKS recovered, Sum 6-10 [2, 7]: 16.95
amount of Pal-KTTKS recovered, Sum 2-10 [2, 8]: 31.64
amount of Pal-KTTKS recovered, Sum 6-10 [2, 8]: 19.40
amount of Pal-KTTKS recovered, Sum 2-10 [2, 9]: 90.87
amount of Pal-KTTKS recovered, Sum 6-10 [2, 9]: 54.66
amount of Pal-KTTKS recovered, Sum 2-10 [2, 10]: 18.10
amount of Pal-KTTKS recovered, Sum 6-10 [2, 10]: 9.26
amount of Pal-KTTKS recovered, Sum 2-10 [2, 11]: 18.31
amount of Pal-KTTKS recovered, Sum 6-10 [2, 11]: 8.02
amount of Pal-KTTKS recovered, Sum 2-10 [2, 12]: 31.17
amount of Pal-KTTKS recovered, Sum 6-10 [2, 12]: 14.86
amount of Pal-KTTKS recovered, Sum 2-10 [2, 13]: 26.78
amount of Pal-KTTKS recovered, Sum 6-10 [2, 13]: 11.84
Enhancement value Strips 2-10 (active/passive) ([2]; array #8, Avg of the enhancement values of all test sites): 4.00
Enhancement value Strips 2-10 (active/passive) ([2]; array #8, subject A site 1): 1.34
Enhancement value Strips 6-10 (active/passive) ([2]; array #8, subject A site 1): 1.33
Enhancement value Strips 2-10 (active/passive) ([2]; array #8, subject A site 2): 16.52
Enhancement value Strips 2-10 (active/passive) ([2]; array #8, subject B site 1): 3.39
Enhancement value Strips 6-10 (active/passive) ([2]; array #8, subject B site 1): 18.16
Enhancement value Strips 2-10 (active/passive) ([2]; array #8, subject B site 2): 3.47
Enhancement value Strips 2-10 (active/passive) ([2]; array #8, subject C site 1): 2.23
Enhancement value Strips 6-10 (active/passive) ([2]; array #8, subject C site 1): 3.03
Enhancement value Strips 2-10 (active/passive) ([2]; array #8, subject C site 2): 1.32
Enhancement value Strips 6-10 (active/passive) ([2]; array #8, subject C site 2): 1.22
Enhancement value Strips 2-10 (active/passive) ([2]; array #8, subject D site 1): 1.72
Enhancement value Strips 6-10 (active/passive) ([2]; array #8, subject D site 1): 3.63
Enhancement value Strips 2-10 (active/passive) ([2]; array #8, subject D site 2): 2.35
Enhancement value Strips 2-10 (active/passive) ([2]; array #8, subject E site 1): 4.86
Enhancement value Strips 6-10 (active/passive) ([2]; array #8, subject E site 1): 10.70
Enhancement value Strips 2-10 (active/passive) ([2]; array #8, subject E site 2): 2.75
Enhancement value Strips 6-10 (active/passive) ([2]; array #8, subject E site 2): 6.73
amount of Pal-KTTKS recovered, Sum 2-10 ([2]; passive, Avg of all test sites): 20.55
amount of Pal-KTTKS recovered, Sum 6-10 ([2]; passive, Avg of all test sites): 10.01
amount of Pal-KTTKS recovered, Sum 2-10 ([2]; passive, subject A site 1): 62.40
amount of Pal-KTTKS recovered, Sum 6-10 ([2]; passive, subject A site 1): 40.39
amount of Pal-KTTKS recovered, Sum 2-10 ([2]; passive, subject A site 2): 2.45
amount of Pal-KTTKS recovered, Sum 6-10 ([2]; passive, subject A site 2): 0.00
amount of Pal-KTTKS recovered, Sum 2-10 ([2]; passive, subject B site 1): 12.58
amount of Pal-KTTKS recovered, Sum 6-10 ([2]; passive, subject B site 1): 2.25
amount of Pal-KTTKS recovered, Sum 2-10 ([2]; passive, subject B site 2): 10.61
amount of Pal-KTTKS recovered, Sum 6-10 ([2]; passive, subject B site 2): 1.04
amount of Pal-KTTKS recovered, Sum 2-10 ([2]; passive, subject C site 1): 14.16
amount of Pal-KTTKS recovered, Sum 6-10 ([2]; passive, subject C site 1): 5.56
amount of Pal-KTTKS recovered, Sum 2-10 ([2]; passive, subject C site 2): 68.87
amount of Pal-KTTKS recovered, Sum 6-10 ([2]; passive, subject C site 2): 43.44
amount of Pal-KTTKS recovered, Sum 2-10 ([2]; passive, subject D site 1): 10.53
amount of Pal-KTTKS recovered, Sum 6-10 ([2]; passive, subject D site 1): 3.35
amount of Pal-KTTKS recovered, Sum 2-10 ([2]; passive, subject D site 2): 7.81
amount of Pal-KTTKS recovered, Sum 6-10 ([2]; passive, subject D site 2): 0.00
amount of Pal-KTTKS recovered, Sum 2-10 ([2]; passive, subject E site 1): 6.41
amount of Pal-KTTKS recovered, Sum 6-10 ([2]; passive, subject E site 1): 1.72
amount of Pal-KTTKS recovered, Sum 2-10 ([2]; passive, subject E site 2): 9.74
amount of Pal-KTTKS recovered, Sum 6-10 ([2]; passive, subject E site 2): 2.31
